What was measured:
brain myelination = assay: Cross-sectional correlation of infant formula nutrient content with brain myelin content (mcDESPOT MRI, myelin water fraction); format: in vivo, human; settings: formula-fed children up to 5 years
Excerpt: MRI (Magnetic Resonance Imaging): MRI brain scans of infants and children between 0 and 5 years were acquired using a white matter imaging technique. This technique provides a quantitative measure, the Myelin Water Fraction (MWF), which is a surrogate marker of myelin content in the brain. When mapped as a function of time across early childhood, myelination trajectories can be generated.
Each infant was scanned using the mcDESPOT (multicomponent Driven Equilibrium Single Pulse Observation of T1 and T2) white matter imaging technique Deoni et al. (Magn. Reson. Med. 2008, 60:1372-1387), which provides a quantitative measure of the myelin water fraction (MWF)—a measure of myelin content—at each point throughout the brain. All infants were scanned during natural (i.e. non-sedated) sleep using acoustically-muffled mcDESPOT imaging protocols. Total imaging times ranged from 19 minutes for the youngest toddlers to 24 minutes for the older 4 year-old children.
Following image alignment, non-brain signal removal, and correction for main and transmit magnetic field (B0 and B1) inhomogeneities, a three-pool signal model (comprising the myelin-associated water; intra-extra axonal water; and a non-exchanging free-water pool) was fit to the mcDESPOT data to derive voxel-wise MWF maps.
Each child's map was then non-linearly aligned to a study specific template. White matter masks, corresponding to 5 bilateral regions (frontal, temporal, occipital, parietal, and cerebellar WM) as well as the body, genu, and splenium of the corpus callosum were created from common databases, registered to the common template, and superimposed onto each child's MWF map. Mean values for each region were then determined for each child and used for subsequent developmental analysis and trajectory modeling.
From the cohort described above, children up to 5 years of age that were fed different infant formulas during infancy were included in a large correlation analysis to examine the relationship between formula nutrient composition and brain myelination. The 5 most frequently used formulas in that cohort were analyzed for their nutritional composition. A single general linear model (GLM) was constructed that modeled all quantified nutrients and child age.
Spearman rank correlations were then calculated between the nutrient content and myelin content value (adjusted for child age) at each image voxel, or point within the brain. Significance was defined as p<0.05 corrected for type 1 error using a cluster based correction approach. An association or trend was defined as p<0.15. […] To reduce the number of nutritional components in the model, we examined the inter-nutritional correlation. Using a conservative threshold of 0.9, we excluded nutritional components that were highly correlated with each other across the various formulas.

[1] = tested on: neural progenitor cell (NPCs); assay: Monolayer culture NPC proliferation assay; format: cell-based, mouse; settings: control 262
Protocol: Monolayer Culture NPC Proliferation Assay (Incorporation of EdU—S Phase Marker
After 24 h, it was ensured that cells had attached to the plate then the medium was carefully removed. 500 μL of compound media plus GF.was added. The cells were cultured for 3 days in appropriate media.
EDU incorporation was measured using Click-iT® EdU Alexa Fluor® 555 Imaging Kit
At the end of day 3 EdU was added to each well at 10 μM for 30 minutes prior to fixation.
For fixation and subsequent immunohistochemical analysis, the medium was removed, the cells were rinsed once with 1×PBS for 5 min, and fixed with 4% PFA in 1×PBS for 15 min at 4° C., then the cells were washed twice with 1×PBS for 5 min, left in 1×PBS, wrapped in foil and leave overnight at 4° C., or staining was proceeded with.
serum, 1×PBS, and 0.1% triton X) added to cover the bottom, the block was kept at room temp for 1 hour. The cells were stained for EDU. The cells were Incubated for 30 min at room temp, in the dark. The cells were washed with 1×PBS and stained with Dapi 1:5000 ul for 15 min. The cells were washed once with 1×PBS, then left in PBS at 4° C., or Imaged immediately using a GE Cytell imager (cell viability

[2] = tested on: neural progenitor cell (NPCs); assay: Neurosphere counts in 96-well plates; format: cell-based, mouse; settings: control 103
Protocol: Generation of neural progenitor cell (NPCs) libraries:
dissociation of E14 mouse neocortex
Plating Cells in 96-Well Plates for Neurosphere Counts and Diameters Only
3-4 mLs of cells were taken out of the tilted plate and add to a 15 ml conical. Some of the remaining media was used to rinse down the plate. All remaining media was drawn up and put into a 15 ml conical tube, and Spun at 130G for 5 min. All media was removed. The cells were gently resuspended in 5 mls of warm PBS, spun again. PBS was then removed and the cells were then gently resuspended in 500 μl of Accutase(Corning™ Accutase™ Cell Detachment Solution, #25058CI). The cells were then Pipetted gently with a 1000p tip to break up pellet, and then they were placed in a shaking water bath for 5-10 minutes, after which time they were swirled by hand frequently.
1 ml was taken off to count cells. The cells were spun again. Media was removed from the cell pellet. 1 mls of prepared media (no GF) was added. The cells were pipetted with a 1000 ul pipette. Cell dilutions (24,000
cells/well) in 250 μL of appropriate media were made. Cells were swirled daily and grown for 2 days.
1. The cells were fixed in the hood. For fixation and subsequent immunohistochemical analysis 100 ul of medium was removed and 100 ul 4% PFA in 1×PBS was added to fix the cells whilst counting the neurospheres by hand, then the cells were washed twice with 1×PBS for 5 min, and left in 1×PBS, wrapped in foil and left overnight at 4° C., or Dapi staining was carried out. 100 uL of PBS was removed and 100 uL
in AB staining solution for five min. Imaging was carried out using a GE Cytell imager or LSM 710, Zeiss confocal microscope and the diameters of neurospheres with ImageJ software (National Institutes of Health) was analysed.

[3] = high dose sphingomyelin (Dose 3: 1 μm)
[4] = low dose sphingomyelin (Dose 1: 10 nM)
[5] = med dose sphingomyelin (Dose 2: 100 nM)

Row | Compound | association with myelination (myelin water fraction) over time in the brain (brain myelination) | other results
1 | iron | an association with myelination (myelin water fraction) was observed over time in the brain | 
2 | vitamin B12 | an association with myelination (myelin water fraction) was observed over time in the brain | 
3 | [P] [phosphorus] | an association with myelination (myelin water fraction) was observed over time in the brain | 
4 | phosphatidylcholine | an association with myelination (myelin water fraction) was observed over time in the brain | 
5 | [Zn] [zinc] | an association with myelination (myelin water fraction) was observed over time in the brain | 
6 | phosphatidylinositol | an association with myelination (myelin water fraction) was observed over time in the brain | 
7 | CCCCC/C=C\C/C=C\C/C=C\C/C=C\CCCC(=O)O [AA, arachidonic acid] | an association with myelination (myelin water fraction) was observed over time in the brain | 
8 | sphingomyelin | an association with myelination (myelin water fraction) was observed over time in the brain | neuronal proliferation, DAPI [1, 3]: 305; neuronal proliferation, DAPI [1, 4]: 280; neuronal proliferation, DAPI [1, 5]: 314; number of neurospheres, Average (Mean) [2, 3]: 219; number of neurospheres, Average (Mean) [2, 4]: 94; number of neurospheres, Average (Mean) [2, 5]: 121
9 | [Ca+2] [calcium] | an association with myelination (myelin water fraction) was observed over time in the brain | 
10 | [Mg+2] [magnesium] | an association with myelination (myelin water fraction) was observed over time in the brain | 

Source: patent publication US12484608B2, “Nutritional composition and infant formula for promoting de novo myelination” (SOCIETE DES PRODUITS NESTLE S.A., priority 2015, dated 2025)
